These results are taken from patent publication US9518065B2, “IRAK inhibitors and uses thereof” (NIMBUS IRIS, INC., priority 2013, dated 2016).

pIC50: −log10 of the molar value. Read-outs that look alike come from different tables or passages of the source.

The subject of series [1] is LPS induced TNF production. As to the kind of experiment: In vivo LPS-induced cytokine production in rats. The arrangement: species or system female Lewis rats. To be noted: for drug concentration corresponding to the minimal efficacious dose: 10 mg/kg PO; for minimal efficacious dose for inhibition of LPS induced TNF production in vivo: PO in 0.5% methylcellulose, LPS 2 hours after dose, serum TNF-α one hour later. As for the experimental part: Compounds of the present invention were also assayed in vivo to determine their inhibitory effect on LPS-induced cytokine production. In vivo studies of LPS-induced cytokine production was conducted in female Lewis rats (n=10 each). Rats were dosed with compound at 30, 10, 3, or 1 mg/kg, 5 mg/kg dexamethasone, or vehicle, dosed PO in 0.5% methylcellulose. After 2 hours, rats were administered LPS in PBS at 0.1 mg/mL, 1 mL/kg. One hour later, rats were bled and serum was analyzed for TNF-α produced by ELISA (eBioscience).

Series [2] deals with cytokine production in human white blood cells (hWBC). Briefly: In vitro LPS/R848/CpG-induced cytokine production assay in hWBC. The class given is cell-based. The conditions noted are these: WBC. How it is done: (§1) Compounds of the present invention were also studied in in vitro LPS/R848/CpG-induced cytokine production assays. Exemplary protocols follow.
(§2) Whole Blood (LPS): 13 mL of whole blood solution was prepared by combining whole blood in no serum medium with a ratio of 1:1. Cells were seeded in a 96-well plate with 130 ul/well of the cell suspension according to the plate map. 9 ul of 30 mM compound solution was added into the wells in the assigned rows, then serial solutions with 4× dilutions were made. That is, add 9 uL of 100% DMSO into each of the rest wells and take 3 uL of compound solution from the one-step higher concentration solution and mix well with the DMSO. For the second compound master plate, 196 uL of the growth medium (no serum media) were added into each of the wells and 4 uL of the compound solution from the first compound master plate was added and mixed with the media. Cells were treated for 0.5 h by adding 20 uL of the compound and the control solutions prepared in the second master plate to each well according to the plate map. Cells were stimulated with a) 0.1 ug/mL of LPS overnight for whole blood assay; b) 0.01 ug/mL of LPS overnight for hWBC assay. Plates were sealed with sealing films and the plates were centrifuged at 3000 rpm at 4 degrees C. for 5 min. The supernatants were transferred, and 100 ul of working Capture antibody solution was added to each well. The plates were sealed and incubated overnight at RT. IL-6, IFN-α or TNF-α detection antibody labeled with biotin: Added 100 uL of the Detection Antibody solution to each well. Covered the plate and incubated for 2 h at RT. Added 100 uL of Streptavidin-HRP solution to each well. Covered the plate and incubate for 20 min at RT in dark. Added 100 uL of Substrate Solution to each well. Incubated for 20 min at RT in dark. Added 50 uL of Stop Solution to each well. Gently tapped the plate to ensure thorough mixing. Determined the optical density of each well immediately, using a microplate reader set to 450 nm and also read at 540 nm or 570 nm for correction if wavelength correction is not available.

The subject of series [3] is cytokine production in whole blood. Briefly: In vitro LPS/R848-induced cytokine production assay in whole blood. The class given is cell-based, human. To be noted: read-out: TNF-α production IC50. As for the experimental part: as §1, §2
[4] abbreviates: Homo sapiens, CPG 0.5 uM, overnight, read-out: IFN-α production IC50.
[5] abbreviates: Homo sapiens, LPS 0.1 uM, overnight, read-out: TNF-α production IC50.
[6] abbreviates: Homo sapiens, R848 1 uM, 5 h, read-out: TNF-α production IC50.
Where [7] appears, read: Homo sapiens, LPS 0.1 uM, overnight.

The term pIC50 denotes the negative decadic logarithm of the IC50, by convention in mol/L. Turning to `CCc1nc2c(N[C@H]3CC[C@H](N4CCOCC4)CC3)nc(Nc3cnn(C4CCOCC4)c3)nc2s1` [Compound I-9, 2-ethyl-5-N-[1-(oxan-4-yl)-1H-pyrazol-4-yl]-7-N—[trans-4-(morpholin-4-yl)cyclohexyl]-[1,3]thiazolo[5,4-d]pyrimidine-5,7-diamine], the “drug concentration corresponding to the minimal efficacious dose” value (from here on “drug concentration corresponding”) in series [1] is 1.05 µM. Further, the “minimal efficacious dose for inhibition of LPS induced TNF production in vivo” value (“minimal efficacious dose for inhibition” for short) in series [1] is 10 mg/kg. Further, the pIC50 in series [2] (setting [4]) was not below 6.60; in series [2] (setting [5]), not below 6.60; in series [2] (setting [6]), not below 6.60; in series [3] (setting [7]), 5.30 to 6.00; in series [3] (Homo sapiens, R848 1 uM, 20 h), 6.00 to 6.60.

Take “2-methyl-N5-(1-methyl-1H-pyrazol-4-yl)-N7-((1r,4r)-4-morpholinocyclohexyl)thiazolo[5,4-d]pyrimidine-5,7-diamine [Compound I-24]”: the “drug concentration corresponding” value in series [1] amounted to 6.6 µM. Moreover, the “minimal efficacious dose for inhibition” value in series [1] turned out to be 10 mg/kg. The pIC50 in series [2] (CPG 0.5 uM, overnight, read-out: IFN-α production IC50) was not below 6.60; in series [2] (LPS 0.1 uM, overnight, read-out: TNF-α production IC50), not below 6.60; in series [2] (R848 1 uM, 5 h, read-out: TNF-α production IC50), not below 6.60; in series [3] (LPS 0.1 uM, overnight), not above 5.30; in series [3] (R848 1 uM, 20 h), 5.30 to 6.00.

As for `CCc1nc2c(N[C@H]3CC[C@H](N4CCOCC4)CC3)nc(Nc3cnn(C)c3)nc2s1` [Compound I-7, 2-ethyl-N5-(1-methyl-1H-pyrazol-4-yl)-N7-((1r,4r)-4-morpholinocyclohexyl)-thiazolo[5,4-d]pyrimidine-5,7-diamine], the “drug concentration corresponding” value in series [1] stood at 1.6 µM. In series [1], the “minimal efficacious dose for inhibition” value is reported as 10 mg/kg. Moreover, the pIC50 in series [2] (setting [4]) is not below 6.60; in series [2] (setting [5]), 6.00 to 6.60; in series [2] (setting [6]), 6.00 to 6.60; in series [3] (setting [7]) it was not above 5.30; in series [3] (Homo sapiens, R848 1 uM, 20 h), 5.30 to 6.00.
